Our source for the AUC(0-t), DC50 and IC50 values is patent EP4740965A1, “PHARMACEUTICAL COMPOSITION OF COMPOUND FOR INHIBITING AND DEGRADING IRAK4, AND USE THEREOF IN MEDICINE” (Xizang Haisco Pharmaceutical Co., Ltd., priority 2023, dated 2025).

Data set [1] in a line: Pharmacokinetic test in mice. Format: in vivo, ICR mice. The conditions noted are these: mouse, po; plasma of mice, i.g. (10 mg/kg). The protocol:
Test example 2: Pharmacokinetic test in mice
Experimental animals: Male ICR mice, about 25 g, 6 mice/compound, purchased from Chengdu Ddossy Experimental Animals Co., Ltd.
Test design: On the day of the experiment, 6 ICR mice were randomly grouped according to their body weights. The animals were fasted with water available for 12 to 14 h one day before the administration, and were fed 4 h after the administration. Table 2.1 Administration information
Before and after the administration, 0.15 mL of blood was taken from the orbit of the animals under isoflurane anaesthesia and placed in an EDTAK2 centrifuge tube. The blood was centrifuged at 5000 rpm and 4°C for 10 min to collect plasma. The blood collection time points for the intravenous administration group and intragastric administration group were 0 min, 5 min, 15 min, 30 min, 1 h, 2 h, 4 h, 7 h and 24 h. Before analysis and detection, all samples were stored at - 60°C. The samples were analysed quantitatively by LC-MS/MS. Table 2.2 Pharmacokinetic parameters of compounds of the present invention in plasma of mice

The next data set concerns the target T1, IRAK4 (Homo sapiens, UniProt Q9NWZ3).
T1 construct: endogenous in cells; host or cells: human peripheral blood mononuclear cells (hPBMC) from healthy volunteers
T1 sequence (Q9NWZ3 1-460): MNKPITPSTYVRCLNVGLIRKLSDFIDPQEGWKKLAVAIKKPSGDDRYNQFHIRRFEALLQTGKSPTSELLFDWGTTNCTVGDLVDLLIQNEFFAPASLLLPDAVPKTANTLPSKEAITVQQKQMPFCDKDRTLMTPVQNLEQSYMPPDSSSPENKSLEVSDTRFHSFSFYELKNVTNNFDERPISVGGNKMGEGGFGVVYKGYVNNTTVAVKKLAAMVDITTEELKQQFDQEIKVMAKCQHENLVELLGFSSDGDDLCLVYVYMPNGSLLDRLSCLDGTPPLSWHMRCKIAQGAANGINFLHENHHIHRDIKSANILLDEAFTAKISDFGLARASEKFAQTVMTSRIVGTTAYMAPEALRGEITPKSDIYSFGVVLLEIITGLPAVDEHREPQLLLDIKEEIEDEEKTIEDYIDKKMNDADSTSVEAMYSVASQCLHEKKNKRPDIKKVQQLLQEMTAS
Nature of the data set: IRAK4 degradation activity in hPBMC cells (24 hours), automated western blot. Format: cell-based. The conditions noted are these: IRAK4 protein degradation in hPBMC cells. The protocol:
Test example 1: Study on IRAK4 degradation activity in hPBMC cells (24 hours)
hPBMC cells are human peripheral blood mononuclear cells. Peripheral venous blood was taken from healthy volunteers, and hPBMCs were isolated using Ficoll density gradient centrifugation (Ficoll-PaqueTM PLUS 1.077, GE, Cat. 17-1140-02). Culture conditions: RPMI-1640 + 10% FBS + 1% penicillin-streptomycin solution. The cells were cultured in an incubator at 37°C and 5% CO2. The cells were plated in a 24-well plate at 1 × 10^6 cells/well. After plating, compounds at different concentrations were added, and the cells were cultured in an incubator at 37°C and 5% CO2 for 24 hours. After the culture was completed, the cells were collected, and RIPA lysis buffer (beyotime, Cat. P0013B) was added. […] The protein sample of the supernatant was collected, the protein was quantified using a BCA kit (Beyotime, Cat. P0009), and then the protein was diluted to 1 mg/mL. The expression of IRAK4 (CST, Cat. 4363S) and the internal reference cofilin (CST, Cat. 5175S) were detected using a fully automated western blot quantitative analyser (Proteinsimple). The expression level of IRAK4 relative to the internal reference was calculated using compass software. […] An IRAK4 degradation-drug concentration curve was fit using Graphpad Prism 8 software, and the DC50 was calculated. […]
A general note: In western blotting, separated proteins are transferred to a membrane and probed.

In data set [2] the target is T2, hERG potassium ion channel (Homo sapiens, UniProt Q12809).
T2 construct: expressed in transfected cells
T2 sequence (Q12809 whole entry): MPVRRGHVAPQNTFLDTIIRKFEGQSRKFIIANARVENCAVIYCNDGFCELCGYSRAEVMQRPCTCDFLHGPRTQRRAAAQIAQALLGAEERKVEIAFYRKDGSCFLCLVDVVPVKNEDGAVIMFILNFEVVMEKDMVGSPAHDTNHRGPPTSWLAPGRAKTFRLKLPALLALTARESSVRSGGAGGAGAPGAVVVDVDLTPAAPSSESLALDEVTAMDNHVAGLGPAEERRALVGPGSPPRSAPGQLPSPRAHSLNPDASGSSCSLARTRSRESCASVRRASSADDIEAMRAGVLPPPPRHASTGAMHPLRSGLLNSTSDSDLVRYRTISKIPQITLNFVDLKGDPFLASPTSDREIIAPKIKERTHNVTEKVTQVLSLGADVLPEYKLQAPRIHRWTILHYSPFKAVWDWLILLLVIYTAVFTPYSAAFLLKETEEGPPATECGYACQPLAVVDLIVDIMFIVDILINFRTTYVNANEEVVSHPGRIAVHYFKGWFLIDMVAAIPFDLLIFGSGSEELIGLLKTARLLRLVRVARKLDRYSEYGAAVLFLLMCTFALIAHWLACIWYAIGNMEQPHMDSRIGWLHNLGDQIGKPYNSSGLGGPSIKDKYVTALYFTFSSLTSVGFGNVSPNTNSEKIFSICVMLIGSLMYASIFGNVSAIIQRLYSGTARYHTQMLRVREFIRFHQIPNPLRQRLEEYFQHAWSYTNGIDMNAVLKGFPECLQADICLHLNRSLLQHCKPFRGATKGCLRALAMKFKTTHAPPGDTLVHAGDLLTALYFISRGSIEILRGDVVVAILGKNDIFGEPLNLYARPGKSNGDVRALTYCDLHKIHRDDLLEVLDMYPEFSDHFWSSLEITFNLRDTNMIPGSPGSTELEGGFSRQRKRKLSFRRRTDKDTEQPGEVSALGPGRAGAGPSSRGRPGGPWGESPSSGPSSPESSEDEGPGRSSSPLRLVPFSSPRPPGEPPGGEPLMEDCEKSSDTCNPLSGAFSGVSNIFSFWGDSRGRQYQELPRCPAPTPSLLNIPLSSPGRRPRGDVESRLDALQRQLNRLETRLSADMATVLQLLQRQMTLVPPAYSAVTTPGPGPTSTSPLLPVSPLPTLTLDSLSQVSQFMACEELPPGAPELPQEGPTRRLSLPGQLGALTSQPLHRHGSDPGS
In words: Effect on hERG potassium ion channel, manual whole cell patch-clamp in CHO cells. The class given is cell-based. The conditions noted are these: hamster, inhibitory effect on hERG potassium channel current. From the text:
Test example 3. Test of effect on hERG potassium ion channel
Experimental platform: electrophysiological manual patch-clamp system
Cell line: Chinese hamster ovary (CHO) cell line stably expressing hERG potassium ion channel
Experimental method: In CHO (Chinese Hamster Ovary) cells stably expressing hERG potassium channel, whole cell patch-clamp technique was used to record hERG potassium channel current at room temperature. The glass microelectrode was made of a glass electrode blank (BF150-86-10, Sutter) by a puller. The tip resistance after filling the liquid in the electrode was about 2-5 MΩ. The glass microelectrode can be connected to the patch-clamp amplifier by inserting the glass microelectrode into an amplifier probe. The clamping voltage and data recording were controlled and recorded by the pClamp 10 software through a computer. The sampling frequency was 10 kHz, and the filtering frequency was 2 kHz. […]
Compound IC50 was calculated using GraphPad Prism 5 software by fitting according to the following equation: Y = Bottom + (Top−Bottom)/(1+10^(∧)((LogIC50−X)*HillSlope)) [formula] where X represents the Log value of the tested concentration of the test sample, Y represents the inhibition percentage at the corresponding concentration, and Bottom and Top represent the minimum and maximum inhibition percentage, respectively. […]
Background: Block of hERG is tested as a sign of cardiac risk.

By AUC(0-t) is commonly meant the area under the concentration-time curve up to a stated or last time point. Turning to `Cn1c(=O)n(C2CCC(=O)NC2=O)c2cccc(C#CCOC3CCN(C[C@H]4CC[C@H](n5cc(NC(=O)c6cnn7ccc(N8C[C@H]9C[C@@H]8CO9)nc67)c(C(F)F)n5)CC4)CC3)c21` (stereo partly shown) [Control compound 1], in data set [1], the AUC(0-t) at 24 h was determined as 2320 ± 146 ng·h/mL.

For orientation: DC50 means the concentration at which degradation of the target reaches its halfway point. Read a high DC50 as a less potent degrader. The term IC50 denotes the midpoint of a concentration-inhibition curve. Read a high IC50 as weaker potency. In the case of `Cn1nc(C2CCC(=O)NC2=O)c2cccc(C#CCO[C@@H]3CCN(C[C@H]4CC[C@H](n5cc(NC(=O)c6cnn7ccc(N8CCO[C@H](CO)C8)nc67)c(C(F)F)n5)CC4)C[C@@H]3F)c21` (single isomer, unassigned) [Chiral isomer 1 of compound 20], on IRAK4, the DC50 was < 20 nM. The IC50 in data set [2] was > 40000 nM.

As to `Cn1nc(C2CCC(=O)NC2=O)c2cccc(C#CCO[C@@H]3CCN(C[C@H]4CC[C@H](n5cc(NC(=O)c6cnn7ccc(N8CCO[C@H](CO)C8)nc67)c(C(F)F)n5)CC4)C[C@@H]3F)c21` (single isomer, unassigned) [Chiral isomer 2 of compound 20], the DC50 on IRAK4 is < 20 nM.
